Test results: patent US12161676B2, “Methods of use of islet cells” (CEDARS-SINAI MEDICAL CENTER, priority 2018, dated 2024)

Tested on: endocrine progenitors
Experiment: Differentiation of iPSC-derived endocrine progenitors towards immature beta cells, marker expression with tested reagent combinations
Assay type: cell-based, human
Settings: addition of the reagent during differentiation of endocrine progenitors into beta cells
Method: FIG. 31. Expression of DAPI, C-Peptide, Glucagon and NKX6.1 when testing various compounds at day 23.
FIG. 32. Measurement of DAPI, C-Peptide, Glucagon and NKX6.1 expression across tested compound combinations.
To further differentiate endocrine progenitors into beta cells, various reagents were tested to determine which combinations are most efficient in generating immature beta cells. T3 was selected for its role in beta cell survival, function, and identity Alk5 inhibitor II was selected for its specificity in inhibition of TGF beta receptor 1. XXI was selected as Notch inhibitor to exit cell cycle and as a driving force between endocrine vs duct phenotypes. Noggin is selected for BMP inhibition due to evidence that inhibition of this pathway is important for endocrine differentiation. Addition of notch inhibitor XXI reduced NKX6.1 levels and increased glucagon levels. […] The aforementioned growth factors can be used in combination for immature beta cell production. Thereafter, there is a need for a maturation step to induce glucose sensitivity on immature induced-islet cells

Row | Molecule | NKX6.1 levels | glucagon levels | c-peptide levels
1 | C[C@H](NC(=O)Cc1cc(F)cc(F)c1)C(=O)N[C@H]1N=C(c2ccccc2)c2ccccc2N(C)C1=O [XXI] | reduced | increased | –
2 | noggin | – | – | slightly increases
